In US20100324829A1, “METHOD OF SELECTING HLA-DP4 LIGANDS AND THE APPLICATIONS THEREOF” (priority 2001, published 2010):
Substitutions are numbered along the chain they refer to.

Key:
[1] = molecular target: T1, HLA-DP4 molecule DPA1*0103/DPB1*0401 (DP401) (Homo sapiens, UniProt P04440+P20036); assay: biochemical; type: binding
T1 construct: purified from various human B lymphocyte lines transformed with the Epstein Barr virus (EBV), which are homozygotes for DP; endogenous in cells
T1 sequence (P20036 29-260): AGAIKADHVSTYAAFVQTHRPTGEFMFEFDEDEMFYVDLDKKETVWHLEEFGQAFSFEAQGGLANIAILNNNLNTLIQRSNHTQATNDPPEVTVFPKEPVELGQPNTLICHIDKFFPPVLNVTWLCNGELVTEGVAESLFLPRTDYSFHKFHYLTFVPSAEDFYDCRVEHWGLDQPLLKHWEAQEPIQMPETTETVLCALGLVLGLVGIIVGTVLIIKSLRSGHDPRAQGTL
T1 sequence (P04440 30-258): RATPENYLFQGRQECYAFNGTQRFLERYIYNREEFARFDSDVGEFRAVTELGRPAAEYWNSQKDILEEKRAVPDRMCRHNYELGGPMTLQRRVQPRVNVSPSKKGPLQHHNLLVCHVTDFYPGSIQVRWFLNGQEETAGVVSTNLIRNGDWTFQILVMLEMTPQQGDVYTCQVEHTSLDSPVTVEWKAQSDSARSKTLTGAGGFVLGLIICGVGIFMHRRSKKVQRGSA

[2] = molecular target: T2, HLA-DP4 molecule DPA1*0103/DPB1*0402 (DP402) (Homo sapiens, UniProt P04440+P20036); assay: biochemical; type: binding
T2 construct: purified from various human B lymphocyte lines transformed with the Epstein Barr virus (EBV), which are homozygotes for DP; endogenous in cells
T2 sequence (P20036 29-260): T1 sequence (P20036 29-260)
T2 sequence (P04440 30-258 A65V/A84D/A85E): T1 sequence (P04440 30-258) with A36V, A55D, A56E

With `CC[C@H](C)[C@H](NC(=O)[C@H](CC(C)C)NC(=O)[C@H](CC(N)=O)NC(=O)[C@H](Cc1ccccc1)NC(=O)[C@H](Cc1ccc(O)cc1)NC(=O)[C@H](CCSC)NC(=O)[C@H](CCCCN)NC(=O)CNC(=O)[C@@H](NC(=O)[C@H](Cc1ccccc1)NC(=O)[C@@H](N)Cc1ccc(O)cc1)C(C)C)C(=O)N[C@@H](CC(=O)O)C(=O)N[C@H](C(=O)N[C@@H](CCCCN)C(=O)N[C@@H](CS)C(=O)N[C@@H](Cc1ccc(O)cc1)C(=O)N[C@@H](CCCCN)C(=O)N[C@@H](CC(C)C)C(=O)O)[C@@H](C)O` [81-98] the IC50 ([1]; IC50 (nM) DP0401, Api m1 overlapping peptides, tracer bUNK 1-17 10 nM, pH 5, 24 h) was 2250 nM.
For AYFAATQFEPLAA [UNK K3A], the “Loss of binding to DP*0401 (ratio of the IC50 values for the mutant peptide and for the UNK1 peptide)” value [1] was 0.9 and the “Loss of binding to DP*0402 (ratio of the IC50 values for the mutant peptide and for the UNK1 peptide)” value [2] was 1.
With KAFAATQFEPLAA [UNK Y4A] the “Loss of binding to DP*0401 (ratio of the IC50 values for the mutant peptide and for the UNK1 peptide)” value [1] was 1.2 and the “Loss of binding to DP*0402 (ratio of the IC50 values for the mutant peptide and for the UNK1 peptide)” value [2] was 0.9.
In the case of KKFAATQFEPLAA [UNK Y4K], the “Loss of binding to DP*0401 (ratio of the IC50 values for the mutant peptide and for the UNK1 peptide)” value [1] is reported as 1.2 and the “Loss of binding to DP*0402 (ratio of the IC50 values for the mutant peptide and for the UNK1 peptide)” value [2] is reported as 1.
KYAAATQFEPLAA [UNK F5A] was tested, and the “Loss of binding to DP*0401 (ratio of the IC50 values for the mutant peptide and for the UNK1 peptide)” value [1] was 41 and the “Loss of binding to DP*0402 (ratio of the IC50 values for the mutant peptide and for the UNK1 peptide)” value [2] was 5.7.
KYEAATQFEPLAA [UNK F5E] was tested, and the “Loss of binding to DP*0401 (ratio of the IC50 values for the mutant peptide and for the UNK1 peptide)” value [1] was 117 and the “Loss of binding to DP*0402 (ratio of the IC50 values for the mutant peptide and for the UNK1 peptide)” value [2] was 123.
With KYFAAAQFEPLAA [UNK T8A] the “Loss of binding to DP*0401 (ratio of the IC50 values for the mutant peptide and for the UNK1 peptide)” value [1] was 0.8 and the “Loss of binding to DP*0402 (ratio of the IC50 values for the mutant peptide and for the UNK1 peptide)” value [2] was 0.8.
For KYFAADQFEPLAA [UNK T8D], the “Loss of binding to DP*0401 (ratio of the IC50 values for the mutant peptide and for the UNK1 peptide)” value [1] was 2 and the “Loss of binding to DP*0402 (ratio of the IC50 values for the mutant peptide and for the UNK1 peptide)” value [2] was 2.3.
In the case of KYFAAEQFEPLAA [UNK T8E], the “Loss of binding to DP*0401 (ratio of the IC50 values for the mutant peptide and for the UNK1 peptide)” value [1] is reported as 2.7 and the “Loss of binding to DP*0402 (ratio of the IC50 values for the mutant peptide and for the UNK1 peptide)” value [2] is reported as 3.7.
With KYFAAFQFEPLAA [UNK T8F] the “Loss of binding to DP*0401 (ratio of the IC50 values for the mutant peptide and for the UNK1 peptide)” value [1] was 2.7 and the “Loss of binding to DP*0402 (ratio of the IC50 values for the mutant peptide and for the UNK1 peptide)” value [2] was 1.7.
KYFAAKQFEPLAA [UNK T8K] was tested, and the “Loss of binding to DP*0401 (ratio of the IC50 values for the mutant peptide and for the UNK1 peptide)” value [1] was 31 and the “Loss of binding to DP*0402 (ratio of the IC50 values for the mutant peptide and for the UNK1 peptide)” value [2] was 3.6.
With KYFAALQFEPLAA [UNK T8L] the “Loss of binding to DP*0401 (ratio of the IC50 values for the mutant peptide and for the UNK1 peptide)” value [1] was 1.9 and the “Loss of binding to DP*0402 (ratio of the IC50 values for the mutant peptide and for the UNK1 peptide)” value [2] was 2.6.
With KYFAANQFEPLAA [UNK T8N] the “Loss of binding to DP*0401 (ratio of the IC50 values for the mutant peptide and for the UNK1 peptide)” value [1] was 4.1 and the “Loss of binding to DP*0402 (ratio of the IC50 values for the mutant peptide and for the UNK1 peptide)” value [2] was 4.8.
With KYFAARQFEPLAA [UNK T8R] the “Loss of binding to DP*0401 (ratio of the IC50 values for the mutant peptide and for the UNK1 peptide)” value [1] was 17 and the “Loss of binding to DP*0402 (ratio of the IC50 values for the mutant peptide and for the UNK1 peptide)” value [2] was 6.7.
With KYFAASQFEPLAA [UNK T8S] the “Loss of binding to DP*0401 (ratio of the IC50 values for the mutant peptide and for the UNK1 peptide)” value [1] was 2.7 and the “Loss of binding to DP*0402 (ratio of the IC50 values for the mutant peptide and for the UNK1 peptide)” value [2] was 3.4.
For KYFAATAFEPLAA [UNK Q9A], the “Loss of binding to DP*0401 (ratio of the IC50 values for the mutant peptide and for the UNK1 peptide)” value [1] was 0.8 and the “Loss of binding to DP*0402 (ratio of the IC50 values for the mutant peptide and for the UNK1 peptide)” value [2] was 0.6.
With KYFAATKFEPLAA [UNK Q9K] the “Loss of binding to DP*0401 (ratio of the IC50 values for the mutant peptide and for the UNK1 peptide)” value [1] was 1.6 and the “Loss of binding to DP*0402 (ratio of the IC50 values for the mutant peptide and for the UNK1 peptide)” value [2] was 0.9.
In the case of KYFAATQAEPLAA [UNK F10A], the “Loss of binding to DP*0401 (ratio of the IC50 values for the mutant peptide and for the UNK1 peptide)” value [1] is reported as 336 and the “Loss of binding to DP*0402 (ratio of the IC50 values for the mutant peptide and for the UNK1 peptide)” value [2] is reported as 62.
In the case of KYFAATQEEPLAA [UNK F10E], the “Loss of binding to DP*0401 (ratio of the IC50 values for the mutant peptide and for the UNK1 peptide)” value [1] is reported as 1405 and the “Loss of binding to DP*0402 (ratio of the IC50 values for the mutant peptide and for the UNK1 peptide)” value [2] is reported as 1190.
In the case of KYFAATQFAPLAA [UNK E11A], the “Loss of binding to DP*0401 (ratio of the IC50 values for the mutant peptide and for the UNK1 peptide)” value [1] is reported as 0.5 and the “Loss of binding to DP*0402 (ratio of the IC50 values for the mutant peptide and for the UNK1 peptide)” value [2] is reported as 0.5.
With KYFAATQFEALAA [UNK P12A] the “Loss of binding to DP*0401 (ratio of the IC50 values for the mutant peptide and for the UNK1 peptide)” value [1] was 1.2 and the “Loss of binding to DP*0402 (ratio of the IC50 values for the mutant peptide and for the UNK1 peptide)” value [2] was 0.9.
